# Assay results as given in patent US6489440B1, “Cyclic compounds” (Basilea Pharmaceutica AG, priority 1998, dated 2002).
# Numbered stars: 1 amine (or outer) side, 2 acyl side, 3 side chain; on linkers, the order of the positions; unused ones are H or OH. Bridge positions count the residues as written; N and C are the ends. Square brackets hold non-standard residues; d marks the D form. Peptide text beside a SMILES is read from it. * marks the point of attachment. ξ: configuration not given here. pTerphenylCO(4''-OnC5H11) = CCCCCOc1ccc(-c2ccc(-c3ccc(C(=O)*)cc3)cc2)cc1; Orn(4R-OH,5R-OH) = O=C([C@H](C[C@@H](O)[C@@H](O)N[*:3])N[*:1])[*:2]; X8 = O=C(C[C@@H](CCc1ccc(-c2ccc(OCCCc3ccccc3)cc2)cc1)N[*:2])[*:1]; hTyr(3S-OH,4S-OH) = N[C@H](C(=O)O)[C@H](O)[C@@H](O)c1ccc(O)cc1; X5 = CC(C)CCCOc1ccc(-c2ccc(CC[C@H](CC(=O)[*:1])N[*:2])cc2)cc1; X3 = CCCCCCCOc1ccc(-c2ccc(CC[C@H](CC(=O)[*:1])N[*:2])cc2)cc1; X10 = CCCCCCCCCOc1ccc2cc(CC[C@H](CC(=O)[*:1])N[*:2])ccc2c1; ξTyr(3-NO2) = NC(Cc1ccc(O)c([N+](=O)[O-])c1)C(=O)O; Pro(3S-OH,4S-Me) = C[C@H]1CN[C@H](C(=O)O)[C@H]1O; X6 = CCCCCCCCCCCCC[C@H](CC(=O)NC(C(=O)O)C(C)O)O*; X4 = CC(=O)Nc1cc(CC(N[*:1])C(=O)[*:2])ccc1O; X2 = NC(=O)CC(O)C(N[*:1])C(=O)[*:2]; Hyp = O=C(O)[C@@H]1C[C@@H](O)CN1; X1 = O=C(C1C(O)CCN1[*:1])[*:2]; ξY = NC(Cc1ccc(O)cc1)C(=O)O; ξHyp = O=C(O)C1CC(O)CN1; ξOrn = NCCCC(N)C(=O)O; ξT = CC(O)C(N)C(=O)O; ξV = CC(C)C(N)C(=O)O; ξA = CC(N)C(=O)O
# What was measured:
# Candida albicans CY1002 = assay: In vitro antifungal activity, broth micro-dilution; assay type: cell-based; conditions: YNB medium, 1-2 days at 35° C.
# Experimental: (§1) The in vitro antifungal activities of the representative Aerothricins of the present study were evaluated by determining the 50% inhibitory concentration (IC50), which was calculated as the lowest concentration of an antifungal to inhibit the growth of fungus to […] turbidity compared with the drug-free control growth spectrophotometrically.
# (§2) The IC50 values were determined by the broth micro-dilution procedure based on NCCLS Approved Standard with the following minor modifications (National Committee for Clinical Laboratory Standards. (1997) Reference method for broth dilution antifungal susceptibility testing for yeasts. Approved standard. Document M27-A). Yeast Nitrogen Base (YNB; Difco Lab.) supplemented with 1% glucose and 0.25% K2HPO4 was used as testing medium for yeast, the same medium solidified with 0.2% low melting point agarose (BRL) was used for filamentous fungi. Inoculum size was 1-3×10^4 cells/ml, and incubation was performed for 1-2 days at 35° C.
# Fusarium solani CF1088 = assay: In vitro antifungal activity, broth micro-dilution; assay type: cell-based; conditions: YNB with 0.2% agarose, 1-2 days at 35° C.
# Experimental: as §1, §2
# [1] = tested on: Aspegillus fumigatus CF1003; assay: In vitro antifungal activity, broth micro-dilution; assay type: cell-based; conditions: YNB with 0.2% agarose, 1-2 days at 35° C.
# Experimental: as §1, §2
# Candida albicans = assay: In vivo antifungal efficacy, systemic candidiasis in mice; set-up: species or system Crj: CD-1 (ICR) mice; conditions: i.v., b.i.d×1 day followed by q.d.×2 days; from survival on day 14
# Experimental: Mice of a conventional immunocompetent mouse strain, Crj: CD-1 (ICR) were used for experimental infection models of systemic candidiasis. 4 weeks old Crj: CD-1 (ICR) mice were used for systemic candidiasis by injecting Candida albicans 5×10^6 conidia/mouse via the tail vein. Treatments were given twice (0, 4 h after infection) on the first day and once daily on following 2 days for systemic candidiasis (b.i.d×1 day followed by q.d.×2 days), intravenously (i.v.). 50% of effective dose (ED50) values was calculated from the survival number at each dose on day 14.
# mouse hepatocytes = assay: In vitro hepatotoxicity test; assay type: cell-based; conditions: mouse hepatocyte monolayers exposed 1 day, morphological evaluation
# Description: The mouse hepatocytes were isolated by a collagenase digestion and cultured in microtest plates. The hepatocyte monolayers were exposed to the test Aerothricins in the culture system for 1 day. After the culture period, the hepatocytes were observed under a microscope and evaluated morphologically. The degree of the morphological alteration (degeneration) of the hepatocytes by the test Aerothricins were compared with WF 11243 and LY303366.
# Solubility = conditions: solvents in which soluble
SMILES,"In vitro Antifungal activity, IC50 (Candida albicans CY1002)","In vitro Antifungal activity, IC50 (Fusarium solani CF1088)","In vitro Antifungal activity, IC50 [1]","In vivo antifungal activity against systemic candidiasis in mice, ED50 on day 14 (Candida albicans)",Cytotoxicity to hepatocyte (mouse hepatocytes),further results
CCCCCCCOc1ccc(-c2ccc(CC[C@@H]3CC(=O)NC(C(C)O)C(=O)NC(C)C(=O)NC(Cc4ccc(O)cc4)C(=O)NC(C(C)C)C(=O)N4CC(O)CC4C(=O)NC(C(C)O)C(=O)NC(C(C)O)C(=O)N4CCC(O)C4C(=O)NC(C(O)CC(N)=O)C(=O)NCC(=O)NC(C(C)O)C(=O)NC(CCCN)C(=O)N3)cc2)cc1 (stereo partly shown) [Aerothricin 43] ([ξT][ξA][ξY][ξV][ξHyp][ξT][ξT][X1][X2]G[ξT][ξOrn]; linker N-C via X3),0.05 µg/mL,0.70 µg/mL,0.04 µg/mL,–,–,–
CC(C)CCCOc1ccc(-c2ccc(CC[C@@H]3CC(=O)NC(C(C)O)C(=O)NC(C)C(=O)NC(Cc4ccc(O)cc4)C(=O)NC(C(C)C)C(=O)N4CC(O)CC4C(=O)NC(C(C)O)C(=O)NC(C(C)O)C(=O)N4CCC(O)C4C(=O)NC(C(O)CC(N)=O)C(=O)NCC(=O)NC(C(C)O)C(=O)NC(CCCN)C(=O)N3)cc2)cc1 (stereo partly shown) [Aerothricin 45] ([ξT][ξA][ξY][ξV][ξHyp][ξT][ξT][X1][X2]G[ξT][ξOrn]; linker N-C via X5),–,–,–,0.3 mg/kg,>100 µg/mL,–
CC1NC(=O)C(C(C)O)NC(=O)C[C@@H](CCc2ccc(-c3ccc(OCCCc4ccccc4)cc3)cc2)NC(=O)C(CCCN)NC(=O)C(C(C)O)NC(=O)CNC(=O)C(C(O)CC(N)=O)NC(=O)C2C(O)CCN2C(=O)C(C(C)O)NC(=O)C(C(C)O)NC(=O)C2CC(O)CN2C(=O)C(C(C)C)NC(=O)C(Cc2ccc(O)cc2)NC1=O (stereo partly shown) [Aerothricin 46] ([ξT][ξA][ξY][ξV][ξHyp][ξT][ξT][X1][X2]G[ξT][ξOrn]; linker N-C via X8),–,–,–,0.4 mg/kg,–,–
CCCCCCCCCOc1ccc2cc(CC[C@@H]3CC(=O)NC(C(C)O)C(=O)NC(C)C(=O)NC(Cc4ccc(O)cc4)C(=O)NC(C(C)C)C(=O)N4CC(O)CC4C(=O)NC(C(C)O)C(=O)NC(C(C)O)C(=O)N4CCC(O)C4C(=O)NC(C(O)CC(N)=O)C(=O)NCC(=O)NC(C(C)O)C(=O)NC(CCCN)C(=O)N3)ccc2c1 (stereo partly shown) [Aerothricin 53] ([ξT][ξA][ξY][ξV][ξHyp][ξT][ξT][X1][X2]G[ξT][ξOrn]; linker N-C via X10),–,–,–,–,>100 µg/mL,–
CCCCCCCOc1ccc(-c2ccc(CC[C@@H]3CC(=O)NC(C(C)O)C(=O)NC(C)C(=O)NC(Cc4ccc(O)c([N+](=O)[O-])c4)C(=O)NC(C(C)C)C(=O)N4CC(O)CC4C(=O)NC(C(C)O)C(=O)NC(C(C)O)C(=O)N4CCC(O)C4C(=O)NC(C(O)CC(N)=O)C(=O)NCC(=O)NC(C(C)O)C(=O)NC(CCCN)C(=O)N3)cc2)cc1 (stereo partly shown) [Aerothricin 55] ([ξT][ξA][ξTyr(3-NO2)][ξV][ξHyp][ξT][ξT][X1][X2]G[ξT][ξOrn]; linker N-C via X3),0.04 µg/mL,0.39 µg/mL,0.04 µg/mL,<0.3 mg/kg,–,–
CCCCCCCOc1ccc(-c2ccc(CC[C@@H]3CC(=O)NC(C(C)O)C(=O)NC(C)C(=O)NC(Cc4ccc(O)c(NC(C)=O)c4)C(=O)NC(C(C)C)C(=O)N4CC(O)CC4C(=O)NC(C(C)O)C(=O)NC(C(C)O)C(=O)N4CCC(O)C4C(=O)NC(C(O)CC(N)=O)C(=O)NCC(=O)NC(C(C)O)C(=O)NC(CCCN)C(=O)N3)cc2)cc1 (stereo partly shown) [Aerothricin 57] ([ξT][ξA][X4][ξV][ξHyp][ξT][ξT][X1][X2]G[ξT][ξOrn]; linker N-C via X3),0.14 µg/mL,1.30 µg/mL,0.05 µg/mL,–,–,–
CCCCCCCCCCCCC[C@H](CC(=O)NC(C(=O)O)C(C)O)OC(=O)C(CCCN)NC(=O)C(NC(=O)CNC(=O)C(NC(=O)C1C(O)CCN1C(=O)C(NC(=O)C(NC(=O)C1CC(O)CN1C(=O)C(N)C(C)C)C(C)O)C(C)O)C(O)CC(N)=O)C(C)O (stereo partly shown) [Compound (IX)] (H-[ξV][ξHyp][ξT][ξT][X1][X2]G[ξT][ξOrn]-X6),–,–,–,–,–,"Solubility (Solubility): Soluble: water, methanol, dimethylsulfoxide"
"CCCCCOc1ccc(-c2ccc(-c3ccc(C(=O)N[C@H]4C[C@@H](O)[C@@H](O)NC(=O)[C@@H]5[C@@H](O)[C@@H](C)CN5C(=O)[C@H]([C@@H](C)O)NC(=O)[C@H]([C@H](O)[C@@H](O)c5ccc(O)cc5)NC(=O)[C@@H]5C[C@@H](O)CN5C(=O)[C@H]([C@@H](C)O)NC4=O)cc3)cc2)cc1 [LY303366, reference compound] ({pTerphenylCO(4''-OnC5H11)}-[Orn(4R-OH,5R-OH)]T[Hyp][hTyr(3S-OH,4S-OH)]T[Pro(3S-OH,4S-Me)]; lactam 1-C)",–,–,–,–,10 µg/mL,–
